{
  "source": "patent US8008092B2",
  "about": "“CCR3 inhibition for ocular angiogenesis and macular degeneration” (University of Kentucky Research Foundation, priority 2007, dated 2011)",
  "molecules": {"B1": {"name": "Eotaxin-3: recombinant human eotaxin-3 (Peprotech), CCR3 ligand (protein, UniProt Q9Y258 24-94, looked up)", "C-C motif chemokine 26": "TRGSDISKTCCFQYSHKPLPWTWVRSYEFTSNSCSQRAVIFTTKRGKKVCTHPRKKWVQKYISLLKTPKQL"}, "B2": {"name": "Eotaxin-2: recombinant human eotaxin-2 (Peprotech), CCR3 ligand (protein, UniProt O00175 27-119, looked up)", "C-C motif chemokine 24": "VVIPSPCCMFFVSKRIPENRVVSYQLSSRSTCLKAGVIFTTKKGQQFCGDPKQEWVQRYMKNLDAKQKKASPRARAVAVKGPVQRYPGNQTTC"}},
  "key": {"[1]": {"test_system": "choroidal neovascularization (CNV)", "test": "Laser-induced choroidal neovascularization (CNV) volume, intravitreous injection", "type": "in vivo, C57BL/6J mice", "settings": "wild-type mice, injected into the vitreous humor immediately after laser injury; compared to vehicle control (DMSO)", "experimental": "Laser photocoagulation (532 nm, 200 mW, 100 ms, 75 μm) (OcuLight GL, Iridex Corporation) was performed (volume studies: 3/eye; protein analyses/flow cytometry: 12/eye) on both eyes of each animal to induce CNV (choroidal neovascularization). CNV volumes were measured by scanning laser confocal microscope (TCS SP, Leica) with 0.5% FITC-Griffonia simplicifolia Isolectin B4 (Vector Laboratories). CNV was induced by laser injury in C57BL/6J and Ccr3^−/− mice and volumes measured 7 days later by confocal evaluation of Griffonia simplicifolia Isolectin B4 staining of RPE-choroid flatmounts. […]\nBecause the probability of each laser lesion developing CNV is influenced by the group to which it belongs, the mouse, the eye, and the laser spot, the mean lesion volumes were compared using a linear mixed model with a split plot repeated measures design. […] Statistical significance was determined at the 0.05 level. […]\nLaser photocoagulation (532 nm, 200 mW, 100 ms, 75 μm) (OcuLight GL, Iridex Corporation) was performed (volume studies: 3/eye; protein analyses/flow cytometry: 12/eye) on both eyes of each animal to induce CNV. CNV volumes were measured by scanning laser confocal microscope (TCS SP, Leica) with 0.5% FITC-Griffonia simplicifolia Isolectin B4 (Vector Laboratories) or 0.5% FITC-rat antibody against mouse CD31 (BD Biosciences). […]"}, "[2]": {"test_system": "primary hCEC", "test": "F-actin polymerization assay", "type": "cell-based, human", "settings": "eotaxin-1 10 ng/mL, eotaxin-2 100 ng/mL, eotaxin-3 2 μg/mL", "experimental": "A F-actin polymerization assay was performed. 10,000 cells from early passage primary hCEC isolates (n=3) were seeded in black-walled 96-well plates and grown to 70-80% confluency in fully supplemented EGM-2MV. Cultures were serum starved overnight in basal media and then stimulated with recombinant human eotaxin-1 (10 ng/mL), eotaxin-2 (100 ng/mL), eotaxin-3 (2 μg/mL) (Peprotech), or vehicle control (PBS). At 0, 10, 30, 60, or 120 second time-points (n=4 per group), cells were fixed in 3.7% paraformaldehyde for 10 minutes, washed, permeabilized in PBS with 0.1% Triton-X, and then stained with rhodamine labeled Phalloidin (1:200, Invitrogen) per manufacturer's recommendations. Plates were analyzed on a fluorescent plate reader (Synergy 4, Biotek) followed by fluorescent microscopy (Nikon E800).\nF-actin polymer ratios between baseline and treated cultures were calculated using a fluorescent based plate assay."}, "[3]": {"test_system": "Rac-1 GTPase in Human CECs (hCECs)", "test": "Rac-1 activation assay (GST-Pak1-PBD pull-down, western blot)", "type": "cell-based", "settings": "hCEC, eotaxin-1 10 ng/ml, at 10 seconds, normalized against control band density", "experimental": "A Rac-1 activation assay was performed. Human CECs were cultured in EGM-2 MV containing 5% FBS. Prior to starting the assay, cells were serum starved with basal medium (MCDB131) supplemented with 1% FB S overnight. Cells were stimulated for designated times with Eotaxin-1, 2 and 3 (10 ng/ml, 100 ng/ml and 2 μg/ml respectively). Equal amounts of lysates (500 μg) were incubated with GST-Pak1-PBD agarose beads (Upstate) to pull-down active GTP-bound Rac-1 at 4° C. for 1 hour with rotation. The samples were subsequently analyzed for bound Rac-1 by western blot analysis using an anti-Rac-1 antibody (Upstate). Band density was measured using VisionWorksLS software (UVP).\nhCECs) were stimulated with Eotaxin-1, 2 and 3 for indicated times. Cells without Eotaxin stimulation were used as a control (0 sec). Equal amount (500 μg) of total cell lysates was used to determine the GTP-bound Rac-1 (active) by pull-down assays. Levels of increase of active Rac-1 were measured after normalizing against the control band density."}},
  "data": [
    {"molecule": "(S)-Methyl-2-naphthoylamino-3-(4-nitrophenyl)propionate [SB328437]", "values": [
      {"measurement": "CNV volume", "setting": "[1]", "value": "reduces CNV volume in a dose-dependent and statistically significant manner"}
    ]},
    {"molecule": "Eotaxin-1: recombinant human eotaxin-1 (Peprotech), CCR3 ligand", "values": [
      {"measurement": "time of peak F-actin polymerization after stimulation", "setting": "[2]", "value": 10, "unit": "s"},
      {"measurement": "increase of Rac-1 activation", "setting": "[3]", "value": "about 6.5 fold"}
    ]},
    {"molecule": "B1", "values": [
      {"measurement": "time of peak F-actin polymerization after stimulation", "setting": "[2]", "value": 10, "unit": "s"}
    ]},
    {"molecule": "B2", "values": [
      {"measurement": "time of peak F-actin polymerization after stimulation", "setting": "[2]", "value": 10, "unit": "s"}
    ]}
  ]
}
